Where no end group is shown, it is not given here.

Assay [1] concerns hepatitis B virus (HBV) ayw strain. Briefly: HBV assay in HepG2-2.2.15 cells (TaqMan PCR of secreted HBV DNA). It is filed as cell-based. Particulars: 10 micrograms per ml; six days. Background: Quantitative PCR measures a nucleic acid by following its amplification.
Assay [2] has as its system HCMV strain AD169. Briefly: HCMV plaque formation assay in MRC-5 cells. It is filed as cell-based. Particulars: for inhibition of HCMV plaque formation as compared to the virus control experiment: 10 micrograms per ml, 7-10 days.
Assay [3] deals with Pseudomonas aeruginosa. Briefly: Pseudomonas aeruginosa assay. It is filed as cell-based. Particulars: 10 micrograms per ml; 5×10^5 CFU/mL; combination 0.95:1.05 mole and all other molar ratios from 1:100 to 100:1.
Assay [4] concerns murine spleen cells. Briefly: Th1/Th2 cytokine profiling assay. In kind it is cell-based, Balb/c mice. The following applies: 10 micrograms per ml; Ovalbumin restimulation, 72 hours; combination 0.95:1.05 mole.
The subject of assay [5] is Primary Human endothelial cells (HUVEC). The experiment in a line: Endothelial cell migration assay. Particulars: 10 micrograms per ml; 22 hours. In kind it is cell-based. Here is the method: Thereafter, designated concentration of testing peptides—10 micrograms per ml—was added in duplicate wells.
The subject of assay [6] is HUVEC. Briefly: Endothelial tube formation assay. It is filed as cell-based, human. The following applies: 10 micrograms per ml; 20 hours. The text has this:
Positive control was vehicle only.

Assay [7] concerns HIV-1IIIB. The experiment in a line: HIV-1 antiviral assay in CEM-SS cells.

Take Pro-Leu-Gly-NH2 [Peptide 2]: in assay [1], the “inhibition of HBV replication as compared to the virus control infection” value was 10.9%. Moreover, in assay [2], the “inhibition of HCMV plaque formation as compared to the virus control experiment” value was “did not inhibit”. Also, the “inhibition of the growth of Pseudomonas aeruginosa” value in assay [3] is recorded as 100%. Moreover, in assay [4], the “change of the production of IFN-γ” value is on record as “did not significantly change”, the “change of the production of TNF-alpha” value is recorded as “did not significantly change”, the “decrease of the production of IL-2” value was 100% and the “decrease of the production of IL-4” value was 100%. Besides, the “decrease of the production of IL-5” value in assay [4] is 42.3%. Further, in assay [5], the “induction of the migration of endothelial cells” value was found to be 8%. Moreover, in assay [6], the “inhibition of the tube formation of human endothelial cells” value was determined as 16%.
Turning to `CC(C)(C)NC(=O)[C@@H]1CN(Cc2cccnc2)CCN1C[C@@H](O)C[C@@H](Cc1ccccc1)C(=O)N[C@H]1c2ccccc2C[C@H]1O` [indinavir], the “antiviral activity of positive control compounds (HIV-1)” value in assay [7] is recorded as “expected levels of antiviral activity”.
In the case of `Nc1nc(O)c2ncn(COC(CO)CO)c2n1` [Ganciclovir, reference compound], the “antiviral activity of positive control compound (HCMV)” value in assay [2] (positive control compound) is listed as “expected levels of antiviral activity”.
`Cc1cn([C@H]2C[C@H](N=[N+]=[N-])[C@@H](CO)O2)c(=O)[nH]c1=O` [AZT]: in assay [7], the “antiviral activity of positive control compounds (HIV-1)” value is reported as “expected levels of antiviral activity”.
As for “Tyr-Val-Lys-Arg-Val-Lys-OH (YVKRVK-OH) [Peptide 1]”, the “inhibition of HBV replication as compared to the virus control infection” value in assay [1] is listed as “did not inhibit”. For the same compound, the “inhibition of HCMV plaque formation as compared to the virus control experiment” value in assay [2] is reported as “did not inhibit”. Further, the “inhibition of the growth of Pseudomonas aeruginosa” value in assay [3] was determined as 100%. Also, in assay [4], the “change of the production of IFN-γ” value is given as “did not significantly change”, the “change of the production of TNF-alpha” value is reported as “did not significantly change”, the “decrease of the production of IL-2” value came to 41.9% and the “decrease of the production of IL-4” value was 58.2%. Besides, the “decrease of the production of IL-5” value in assay [4] is 37.4%. Besides, the “inhibition of the migration of human endothelial cells” value in assay [5] was 8%. Further, the “inhibition of the tube formation of human endothelial cells” value in assay [6] was found to be 21%.

The values are drawn from patent US20100204153A1, “USE OF BAND 3 PROTEIN (824-829) AND/OR MELANOCYTE-STIMULATING HORMONE RELEASE-INHIBITING FACTOR AS A THERAPEUTIC AGENT IN THE TREATMENT OF PSEUDOMONAS AERUGINOSA INFECTION” (priority 2007, published 2010).
